Patent US20210023074A1, “TREATMENT OF DEMYELINATING DISEASES” (Victoria Link Ltd., priority 2018, published 2021)

System: cuprizone-induced demyelination in mice
Experiment: Cuprizone demyelination disease model, TEM of corpus callosum, g-ratio
Type: in vivo, C57BL/6 mice
Conditions: 0.3% cuprizone diet, 0.01 mg/kg i.p. daily from day 28, day 70
Experimental: Experimental details: A demyelinating disease state was induced in female C57BL/6 mice (8-14 weeks old and between 17-23 grams in weight). The mice were fed cuprizone-containing chow (0.3% (w/w) cuprizone) or chow only (normal controls) for 35 days, at which point they were switched back to standard chow. At day 28, mice were started on daily treatment with vehicle only (DMSO: Tween 80: Saline) or nalmefene at 0.01 mg/kg by i.p. injection. On day 70, mice were culled and brain tissue were processed for transmission electron microscopy (TEM). Mice were weighed daily and the % weight change calculated.
Experimental details: A demyelinating disease state was induced in female C57BL/6 mice as described in FIG. 19A. FIGS. 19A-C show representative Transmission Electron Microscopy (TEM) images of the corpus callosum of mice (A) fed normal diet and (B-C) fed 0.3% cuprizone to induce demyelination. Following the time course described in FIG. 19A, cuprizone fed mice were administered (B) vehicle only treatment, and (C) nalmefene (0.01 mg/kg/i.p.) and then sacrificed on experimental day 70. Scale bars represent 2000 nm.
Mice fed a normal diet have a mean g-ratio of 0.78±0.09 in contrast to mice fed 0.3% cuprizone that have a significant increase in g-ratio of 0.84±0.1 corresponding to the decreased myelin thickness (####p<0.0001). […] Data represents measurements of 5 TEM images of the corpus callosum from 2-3 mice per treatment group and g-ratios calculated (a measure of myelin thickness) using Image J software. Analysis was performed by individuals blinded to treatment groups. (n=200-400 axons per treatment group). All data analysed by one-way ANOVA followed by Turkeys multiple comparisons test.

C=C1CC[C@@]2(O)[C@H]3Cc4ccc(O)c5c4[C@@]2(CCN3CC2CC2)[C@H]1O5 [nalmefene, (4R,4aS,7aS,12bS)-3-(cyclopropylmethyl)-7-methylidene-2,4,5,6,7a,13-hexahydro-1H-4,12-methanobenzofuro[3,2-e]isoquinoline-4a,9-diol]
axonal-myelin structure and remyelination (TEM): more normal axonal-myelin structure and organisation, and increased remyelination | g-ratio (measure of myelin thickness), corpus callosum: 0.791±0.01 | g-ratio compared to vehicle: significantly lower g-ratio compared to vehicle only treated
